Columns and labels:
[1] = target: T1, Signal transducer and activator of transcription 3 (Homo sapiens, UniProt P40763); test: Inhibition of IL-23 stimulated STAT3 […] in human naive T cell preincubated with compound for 10 to 15 mins followed by IL-23 stimulation and measured after 15 mins by ELISA analysis
[2] = target: T1, Signal transducer and activator of transcription 3; test: Inhibition of IL-6 stimulated STAT3 phosphorylation in human PBMC preincubated with compound for 10 to 15 mins followed by IL-6 stimulation and measured after 15 mins by ELISA analysis

T1 sequence (P40763 whole entry): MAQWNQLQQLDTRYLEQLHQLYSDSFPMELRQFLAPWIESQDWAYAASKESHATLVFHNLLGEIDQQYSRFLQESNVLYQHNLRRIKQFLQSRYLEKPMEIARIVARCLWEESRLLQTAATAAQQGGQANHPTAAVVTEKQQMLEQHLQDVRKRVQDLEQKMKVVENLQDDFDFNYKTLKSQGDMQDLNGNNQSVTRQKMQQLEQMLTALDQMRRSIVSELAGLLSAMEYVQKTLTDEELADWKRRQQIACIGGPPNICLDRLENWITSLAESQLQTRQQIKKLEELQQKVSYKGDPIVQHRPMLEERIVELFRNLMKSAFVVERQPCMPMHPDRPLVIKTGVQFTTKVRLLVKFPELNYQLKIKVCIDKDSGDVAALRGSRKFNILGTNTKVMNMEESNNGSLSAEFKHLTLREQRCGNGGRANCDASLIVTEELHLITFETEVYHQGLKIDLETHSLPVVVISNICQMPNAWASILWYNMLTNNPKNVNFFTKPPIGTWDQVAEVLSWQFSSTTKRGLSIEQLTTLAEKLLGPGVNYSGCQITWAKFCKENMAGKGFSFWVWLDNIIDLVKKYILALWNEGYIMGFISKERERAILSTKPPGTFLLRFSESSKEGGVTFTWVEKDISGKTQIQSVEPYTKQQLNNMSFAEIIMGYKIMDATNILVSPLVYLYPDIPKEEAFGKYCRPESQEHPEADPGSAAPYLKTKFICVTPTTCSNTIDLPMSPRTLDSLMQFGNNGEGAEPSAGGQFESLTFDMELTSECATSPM

An IC50 [1] of 20 nM and an IC50 [2] of 44 nM were found for CCS(=O)(=O)N1CC(CC#N)(n2cc(-c3ncnc4[nH]ccc34)cn2)C1 [LY-3009104] in this work.

— BindingDB's records for PubMed 32120325 (China Pharmaceutical University, 2020)
